These results are taken from patent US6339046B1, “Pyrazde herbicides” (Syngenta Investment Corporation, priority 1996, dated 2002).

Series [1] deals with Avena. Description: Pre-emergence herbicidal action (Example B1). The format is in vivo. The conditions noted are these: 500 g of a.i./ha, sprayed immediately after sowing, evaluated after 3 weeks, nine-step scale (1=complete damage, 9=no action). The method, then: (§1) Herbicidal Action Before Emergence of the Plants (Pre-emergence Action)
(§2) Monocotyledoneous and dicotyledoneous test plants are grown in standard soil in plastic pots. Immediately after sowing, the test substances are sprayed on in the form of an aqueous suspension or emulsion, prepared from a 25% emulsion concentrate (Example F1, c)), which corresponds to a dosage of 500 g of a.i./ha (500 l of water/ha). The test plants are subsequently grown in the greenhouse under optimal conditions. After a test period of 3 weeks, the experiment is evaluated on a nine-step scale (1=complete damage, 9=no action). Score figures of 1 to 4 (in particular 1 to 3) denote a good to very good herbicidal action.
(§3) Test plants: Avena, Setaria, Solanum, Stellaria, Ipomoea.

In series [2] the test system is Ipomoea. In words: Pre-emergence herbicidal action (Example B1). The series is classed as in vivo. The settings on record: 500 g of a.i./ha, sprayed immediately after sowing, evaluated after 3 weeks, nine-step scale (1=complete damage, 9=no action). Here is the method: as §1, §2, §3
The subject of series [3] is Setaria. In words: Pre-emergence herbicidal action (Example B1). The format is in vivo. Also on record: key: 1=complete damage; 9=no action; Score figures of 1 to 4 (in particular 1 to 3) denote a good to very good herbicidal action. The conditions noted are these: 500 g of a.i./ha, sprayed immediately after sowing, evaluated after 3 weeks, nine-step scale (1=complete damage, 9=no action). The method, then: as §1, §2, §3

For series [4], the system named is Solanum. Description: Pre-emergence herbicidal action (Example B1). The format is in vivo. The settings on record: 500 g of a.i./ha, sprayed immediately after sowing, evaluated after 3 weeks, nine-step scale (1=complete damage, 9=no action). Also on record: key: 1=complete damage; 9=no action; Score figures of 1 to 4 (in particular 1 to 3) denote a good to very good herbicidal action. Here is the method:
as §1, §2, §3

Series [5] has as its system Stellaria. Description: Pre-emergence herbicidal action (Example B1). The series is classed as in vivo. The arrangement: key: 1=complete damage; 9=no action; Score figures of 1 to 4 (in particular 1 to 3) denote a good to very good herbicidal action. The settings on record: 500 g of a.i./ha, sprayed immediately after sowing, evaluated after 3 weeks, nine-step scale (1=complete damage, 9=no action). Here is the method:
as §1, §2, §3

The test system of series [6] is Setaria. In words: Post-emergence herbicidal action (Example B2). The series is classed as in vivo. The arrangement: key: nine-step scale: 1 = complete damage, 9 = no action. The settings on record: 500 g of a.i./ha, sprayed in the 4- to 6-leaf stage, evaluated after approximately 18 days, nine-step scale (1=complete damage, 9=no action). The method, then:
(§4) Post-emergence Herbicidal Action
(§5) In the greenhouse, monocotyledoneous and dicotyledoneous test plants are grown in standard soil in plastic pots and, in the 4- to 6-leaf stage, sprayed with an aqueous suspension or emulsion of the test substances of the formula I, prepared from a 25% emulsion concentrate (Example F1, c)), which corresponds to a dosage of 500 g of a.i./ha (500 l of water/ha). The test plants are subsequently grown on in the greenhouse under optimal conditions. After a test period of approximately 18 days, the experiment is evaluated on a nine-step scale (1=complete damage, 9=no action). Score figures of 1 to 4 (in particular 1 to 3) denote a good to very good herbicidal action.
(§6) Test plants: Setaria, Sinapis, Solanum, Stellaria, Ipomoea.

The subject of series [7] is Ipomoea. In words: Post-emergence herbicidal action (Example B2). The series is classed as in vivo. The arrangement: key: 1=complete damage; 9=no action; Score figures of 1 to 4 (in particular 1 to 3) denote a good to very good herbicidal action. The conditions noted are these: 500 g of a.i./ha, sprayed in the 4- to 6-leaf stage, evaluated after approximately 18 days, nine-step scale (1=complete damage, 9=no action). The method, then: as §4, §5, §6

The subject of series [8] is Sinapis. Description: Post-emergence herbicidal action (Example B2). The series is classed as in vivo. The arrangement: key: 1=complete damage; 9=no action; Score figures of 1 to 4 (in particular 1 to 3) denote a good to very good herbicidal action. The conditions noted are these: 500 g of a.i./ha, sprayed in the 4- to 6-leaf stage, evaluated after approximately 18 days, nine-step scale (1=complete damage, 9=no action). The method, then:
as §4, §5, §6

For series [9], the system named is Solanum. Description: Post-emergence herbicidal action (Example B2). The series is classed as in vivo. Also on record: key: 1=complete damage; 9=no action; Score figures of 1 to 4 (in particular 1 to 3) denote a good to very good herbicidal action. The conditions noted are these: 500 g of a.i./ha, sprayed in the 4- to 6-leaf stage, evaluated after approximately 18 days, nine-step scale (1=complete damage, 9=no action). Here is the method: as §4, §5, §6

For series [10], the system named is Stellaria. Description: Post-emergence herbicidal action (Example B2). The arrangement: key: 1=complete damage; 9=no action; Score figures of 1 to 4 (in particular 1 to 3) denote a good to very good herbicidal action. The settings on record: 500 g of a.i./ha, sprayed in the 4- to 6-leaf stage, evaluated after approximately 18 days, nine-step scale (1=complete damage, 9=no action). The series is classed as in vivo. Here is the method: as §4, §5, §6

For orientation: melting point means the temperature, or range, at which the solid turns liquid. Consider `C#CCOc1cc(-c2nn(C)c(C#N)c2C)c(F)cc1Cl` [I1.027], for which the melting point fell in the range of 145 to 146 °C. Also, the “Pre-emergence action, score, test plant Avena” value in [1] was 3. Besides, in series [2], the “Pre-emergence action, score, test plant Ipomoea” value was 4. Besides, the “Pre-emergence action, score, test plant Setaria” value in series [3] amounted to 2. For the same compound, in series [4], the “Pre-emergence action, score, test plant Solanum” value is on record as 1. Moreover, in series [5], the “Pre-emergence action, score, test plant Stellaria” value is listed as 1.
Consider `Cc1c(-c2cc(C(=O)O)c(Cl)cc2F)nn(C)c1C#N` [I1, 130], for which, in series [6], the “Post-emergence action, score, test plant Setaria” value was determined as 3. Further, the “Post-emergence action, score, test plant Ipomoea” value in [7] worked out at 1. Besides, in [8], the “Post-emergence action, score, test plant Sinapis” value is given as 1. In addition, in series [9], the “Post-emergence action, score, test plant Solanum” value turned out to be 1. The “Post-emergence action, score, test plant Stellaria” value in [10] turned out to be 1.
As to `C#CCOc1cc(-c2nn(C)c(C#N)c2C)c(F)cc1Cl` [I1, 027], the “Post-emergence action, score, test plant Setaria” value in series [6] amounted to 3. Further, the “Post-emergence action, score, test plant Ipomoea” value in series [7] is listed as 1. Also, in series [8], the “Post-emergence action, score, test plant Sinapis” value was found to be 3. Moreover, the “Post-emergence action, score, test plant Solanum” value in [9] is reported as 1. Further, the “Post-emergence action, score, test plant Stellaria” value in series [10] was 1.
Turning to `Cc1c(-c2ccc(Cl)cc2F)nn(C)c1C#N` [I1, 001], in series [6], the “Post-emergence action, score, test plant Setaria” value is on record as 3. In addition, the “Post-emergence action, score, test plant Ipomoea” value in [7] is 1. In [8], the “Post-emergence action, score, test plant Sinapis” value was found to be 4. In addition, the “Post-emergence action, score, test plant Solanum” value in series [9] is given as 2. Further, the “Post-emergence action, score, test plant Stellaria” value in series [10] is 5.
The matching figures for `Cc1c(-c2cc(C(=O)OC(C)C)c(Cl)cc2F)nn(C)c1C#N` [I1, 140]: 2, 1, 4, 1 and 1.
Consider `Cc1c(-c2cc(CC(Cl)C(=O)OCc3ccccc3)c(Cl)cc2F)nn(C)c1C#N` (centres unmarked) [I1, 122], for which the “Post-emergence action, score, test plant Setaria” value in series [6] worked out at 4. For the same compound, in series [7], the “Post-emergence action, score, test plant Ipomoea” value is reported as 1. Further, the “Post-emergence action, score, test plant Sinapis” value in [8] is 1. Moreover, in series [9], the “Post-emergence action, score, test plant Solanum” value is reported as 1. Also, the “Post-emergence action, score, test plant Stellaria” value in series [10] is on record as 1.
Take `Cc1c(-c2cc(C(=O)OC(C)(C)C(=O)O)c(Cl)cc2F)nn(C)c1C#N` [I1, 151]: in [6], the “Post-emergence action, score, test plant Setaria” value was found to be 3. In addition, the “Post-emergence action, score, test plant Ipomoea” value in [7] came to 1. For the same compound, the “Post-emergence action, score, test plant Sinapis” value in [8] amounted to 1. In addition, the “Post-emergence action, score, test plant Stellaria” value in [10] is reported as 1.
`Cc1c(-c2cc(O)c(Cl)cc2Cl)nn(C)c1C#N` [Comp. No. I36.103, 3-(2,4-dichloro-5-hydroxyphenyl)-4-methyl-5-cyano-1-methyl-[1H]-pyrazole] had a melting point of 263 to 265 °C.
Take `C#CCOc1cc(-c2nn(C)c(C#N)c2C)c(Cl)cc1Cl` [I3, 027]: in series [6], the “Post-emergence action, score, test plant Setaria” value is given as 6. Also, the “Post-emergence action, score, test plant Ipomoea” value in series [7] is recorded as 3. Also, in series [8], the “Post-emergence action, score, test plant Sinapis” value turned out to be 3. The “Post-emergence action, score, test plant Solanum” value in series [9] is 1. Also, the “Post-emergence action, score, test plant Stellaria” value in series [10] came to 3.
Turning to `Cc1c(-c2cc(C(=O)OC(C)C)c(Cl)cc2F)nn(C)c1C#N` [I1.140], the “Pre-emergence action, score, test plant Avena” value in series [1] came out at 3. Also, the “Pre-emergence action, score, test plant Ipomoea” value in series [2] is given as 4. The “Pre-emergence action, score, test plant Setaria” value in [3] is 1. In series [4], the “Pre-emergence action, score, test plant Solanum” value was found to be 2. Besides, in [5], the “Pre-emergence action, score, test plant Stellaria” value worked out at 1.
Regarding `Cc1c(-c2ccc(Cl)cc2F)nn(C)c1C(N)=S` [I5, 001], in series [6], the “Post-emergence action, score, test plant Setaria” value is given as 6. In series [7], the “Post-emergence action, score, test plant Ipomoea” value is recorded as 1. Besides, the “Post-emergence action, score, test plant Sinapis” value in series [8] is given as 7. Besides, in series [9], the “Post-emergence action, score, test plant Solanum” value was 1. Besides, in series [10], the “Post-emergence action, score, test plant Stellaria” value is reported as 7.
Regarding `Cc1c(-c2ccc(Cl)cc2F)nn(C)c1C(N)=S` [I5.001], the “Pre-emergence action, score, test plant Avena” value in series [1] came out at 6. In addition, the “Pre-emergence action, score, test plant Ipomoea” value in series [2] is listed as 6. In addition, in series [3], the “Pre-emergence action, score, test plant Setaria” value is reported as 1. Also, in series [4], the “Pre-emergence action, score, test plant Solanum” value is 1. The “Pre-emergence action, score, test plant Stellaria” value in series [5] was found to be 7.
Turning to `COc1cc(-c2nn(C)c(C#N)c2C)c(F)cc1Cl` [I1, 006], the “Post-emergence action, score, test plant Setaria” value in series [6] is given as 2. Further, the “Post-emergence action, score, test plant Ipomoea” value in [7] is given as 1. In series [8], the “Post-emergence action, score, test plant Sinapis” value worked out at 3. Also, the “Post-emergence action, score, test plant Solanum” value in series [9] is 1. Moreover, the “Post-emergence action, score, test plant Stellaria” value in series [10] is recorded as 3.
Compound `C#CCOc1cc(-c2nn(C)c(C#N)c2C)c(Cl)cc1Cl` [Comp. No. I3.027, 3-(2,4-dichloro-5-propargyloxyphenyl)-4-methyl-5-cyano-1-methyl-[1H]-pyrazole] yielded a melting point of 256 to 257 °C. The “Pre-emergence action, score, test plant Avena” value in series [1] stood at 6. The “Pre-emergence action, score, test plant Ipomoea” value in series [2] is 6. Moreover, in series [3], the “Pre-emergence action, score, test plant Setaria” value was 1. Further, the “Pre-emergence action, score, test plant Solanum” value in [4] is given as 1. In [5], the “Pre-emergence action, score, test plant Stellaria” value was 2.
Turning to `COc1cc(-c2nn(C)c(C#N)c2C)c(F)cc1Cl` [I1.006], the “Pre-emergence action, score, test plant Avena” value in series [1] was 4. Further, in [2], the “Pre-emergence action, score, test plant Ipomoea” value is reported as 4. For the same compound, the “Pre-emergence action, score, test plant Setaria” value in series [3] is 1. Moreover, the “Pre-emergence action, score, test plant Solanum” value in series [4] stood at 1. For the same compound, in series [5], the “Pre-emergence action, score, test plant Stellaria” value was 1.
Regarding `COC(=O)c1cc(-c2nn(C)c(C#N)c2C)c(F)cc1Cl` [I1, 134], the “Post-emergence action, score, test plant Setaria” value in [6] is on record as 5. Also, the “Post-emergence action, score, test plant Ipomoea” value in series [7] worked out at 1. In addition, the “Post-emergence action, score, test plant Sinapis” value in series [8] worked out at 3. Also, the “Post-emergence action, score, test plant Solanum” value in series [9] came to 1. Also, the “Post-emergence action, score, test plant Stellaria” value in [10] stood at 1.
`Cc1c(-c2ccc(Cl)cc2F)nn(C)c1C#N` [I1.001]: the melting point was 152 to 153 °C. The “Pre-emergence action, score, test plant Avena” value in series [1] is listed as 4. For the same compound, the “Pre-emergence action, score, test plant Ipomoea” value in series [2] was determined as 3. For the same compound, the “Pre-emergence action, score, test plant Setaria” value in [3] is 1. The “Pre-emergence action, score, test plant Solanum” value in series [4] stood at 1. Further, the “Pre-emergence action, score, test plant Stellaria” value in [5] is 6.
